# Measured values reported in patent publication US8802678B2, “Carbonylated (aza) cyclohexanes as dopamine D3 receptor ligands” (Bioprojet, priority 2006, dated 2014).
row,SMILES,melting point
1,"CC(=O)c1cccc(N2CCN(CC[C@H]3CC[C@H](NC(=O)CC#N)CC3)CC2)c1 [Example 7, N-(4-{2-[4-(3-acetylphenyl)piperazin-1-yl]ethyl}cyclohexyl)-2-cyanoacetamide trans/cis 80/20]",160 °C
2,N#CCC(=O)N[C@H]1CC[C@@H](CCN2CC=C(c3ccc(F)cc3)CC2)CC1,147 °C
3,"CCN(CC)CCC(=O)N[C@H]1CC[C@H](CCN2CCN(c3cccc(C(F)(F)F)c3)CC2)CC1 [Example 167, 3-Diethylamino-N-(4-{2-[4-(3-trifluoromethylphenyl)piperazin-1-yl]ethyl}cyclohexyl)propanamide trans/cis 85/15]",77 °C
4,"O=C(CC1C=CCC1)N[C@H]1CC[C@H](CCN2CCN(c3cccc(C(F)(F)F)c3)CC2)CC1 (stereo partly drawn) [Example 373, 2-Cyclopent-2-enyl-N-(4-{2-[4-(3-trifluoromethylphenyl)piperazin-1-yl]ethyl}cyclohexyl)acetamide]",154 °C
5,"CCCNC(=O)C[C@H]1CC[C@H](CCN2CCN(c3ccccc3F)CC2)CC1 [Example 306, 2-(4-{2-[4-(2-Fluorophenyl)-piperazin-1-yl]ethyl}cyclohexyl)-N-propylacetamide]",150 °C
6,"N#CCCCC(=O)N[C@H]1CC[C@H](CCN2CCN(c3cc(Cl)cc(C(F)(F)F)c3)CC2)CC1 [Example 529, N-(4-{2-[4-(3-Chloro-5-trifluoromethylphenyl)piperazin-1-yl]ethyl}cyclohexyl)-4-cyanobutanamide]",152 °C
7,"N#CCCC(F)(F)C(=O)N[C@H]1CC[C@H](CCN2CCN(c3cccc(C(F)(F)F)c3F)CC2)CC1 [Example 460, 4-Cyano-2,2-difluoro-N-(4-{2-[4-(2-fluoro-3-trifluoromethyl-phenyl)piperazin-1-yl]ethyl}cyclohexyl)butanamide]",151 °C
8,"Cc1cc(C)cc(N2CCN(CC[C@H]3CC[C@H](NC(=O)CC#N)CC3)CC2)c1 [Example 148, 2-Cyano-N-(4-{2-[4-(3,5-dimethylphenyl)piperazin-1-yl]ethyl}cyclohexyl)acetamide]",192 °C
9,"N#CCC(=O)N[C@H]1CC[C@H](CCN2CCN(c3cccc(OC(F)(F)F)c3)CC2)CC1 [Example 157, 2-Cyano-N-(4-{2-[4-(3-trifluoromethoxyphenyl)piperazin-1-yl]ethyl}cyclohexyl)acetamide]",173 to 174 °C
10,CCc1cccc(N2CCN(CC[C@H]3CC[C@H](NC(=O)CCCC#N)CC3)CC2)c1.Cl,205 °C
11,"COCCCC(=O)N[C@H]1CC[C@H](CCN2CCN(c3cccc(C(F)(F)F)c3)CC2)CC1 [Example 64, 4-Methoxy-N-(4-{2-[4-(3-trifluoromethylphenyl)piperazin-1-yl]ethyl}cyclohexyl)butanamide]",149 °C
12,COCC(=O)N[C@H]1CC[C@H](CCN2CC=C(c3cccc(C#N)c3)CC2)CC1,117 °C
13,"Cc1cccc(N2CCN(CC[C@H]3CC[C@H](NC(=O)CC#N)CC3)CC2)c1C [Example 219, 2-Cyano-N-(4-{2-[4-(2,3-dimethylphenyl)piperazin-1-yl]ethyl}cyclohexyl)acetamide]",166 °C
14,"N#CCCCC(=O)N[C@H]1CC[C@H](CCN2CCN(c3cc(C(F)(F)F)cc(C(F)(F)F)c3)CC2)CC1 [Example 184, N-(4-{2-[4-(3,5-Bistrifluoromethylphenyl)piperazin-1-yl]ethyl}cyclohexyl)-4-cyanobutanamide]",166 °C
15,N#CCC(=O)N[C@H]1CC[C@H](CCN2CC=C(c3cc(F)cc(C(F)(F)F)c3)CC2)CC1,163 °C
16,"CCOCC(=O)N[C@H]1CC[C@H](CCN2CCN(c3ccc(OC)cc3)CC2)CC1 [Example 572, 2-Ethoxy-N-(4-{2-[4-(4-methoxyphenyl)piperazin-1-yl]ethyl}cyclohexyl)acetamide]",132 °C
17,"N#CCCCC(=O)N[C@H]1CC[C@H](CCN2CCN(c3ccc(Cl)c(Cl)c3F)CC2)CC1 [Example 520, 4-Cyano-N-(4-{2-[4-(3,4-dichloro-2-fluorophenyl)piperazin-1-yl]ethyl}cyclohexyl)butanamide]",199 °C
18,"Cc1ccc(N2CCN(CC[C@H]3CC[C@H](NC(=O)CC#N)CC3)CC2)cc1C [Example 340, 2-Cyano-N-(4-{2-[4-(3,4-dimethylphenyl)piperazin-1-yl]ethyl}cyclohexyl)acetamide]",210 °C
19,"N#CCCCC(=O)N[C@H]1CC[C@H](CCN2CCN(c3cccc(F)c3F)CC2)CC1 [Example 445, 4-Cyano-N-(4-{2-[4-(2,3-difluorophenyl)piperazin-1-yl]ethyl}cyclohexyl)butanamide]",197 °C
20,COCCNC(=O)C[C@H]1CC[C@H](CCN2CCN(c3cccc(C(F)(F)F)c3)CC2)CC1.Cl,143 °C
21,N#CCC(=O)N[C@H]1CC[C@H](CCN2CC=C(c3ccccc3F)CC2)CC1,156 °C
22,"NC(=O)CCC(=O)N[C@H]1CC[C@H](CCN2CCN(c3cc(C(F)(F)F)ccc3F)CC2)CC1 [Example 631, N-(4-{2-[4-(2-Fluoro-5-trifluoromethylphenyl)piperazin-1-yl]ethyl}cyclohexyl)succinamide]",238 °C
23,Cc1cc(N2CCN(CC[C@H]3CC[C@H](NC(=O)CCCC#N)CC3)CC2)c(Cl)cc1F [Example 390],158 °C

row,SMILES,melting point
1,"O=C(CCC(F)(F)F)N[C@H]1CC[C@H](CCN2CCN(c3cc(C(F)(F)F)ccc3F)CC2)CC1 [Example 736, 4,4,4-Trifluoro-N-(4-{2-[4-(2-fluoro-5-trifluoromethyl-phenyl)piperazin-1-yl]ethyl}cyclohexyl)butanamide]",182 °C
2,"CS(=O)(=O)c1cccc(N2CCN(CC[C@H]3CC[C@H](NC(=O)CCC(F)(F)F)CC3)CC2)c1 [Example 469, 4,4,4-Trifluoro-N-(4-{2-[4-(3-methanesulfonylphenyl)piperazin-1-yl]ethyl}cyclohexyl)butanamide]",205 °C
3,COc1ccc(Cl)c(N2CCN(CCC3CCN(CC(C)=O)CC3)CC2)c1.Cl.Cl,263 °C
4,CC(=O)CN1CCC(CCN2CC=C(c3ccccc3)CC2)CC1,80 °C
5,"N#CCCCCC(=O)NC1CCC(CCN2CCN(c3cccc(C(F)(F)F)c3)CC2)CC1 (stereo not drawn) [Example 745, 5-Cyano-pentanoic acid (4-{2-[4-(3-trifluoromethylphenyl)-piperazin-1-yl]ethyl}cyclohexyl) amide]",90 °C
6,CCCOCC(=O)N[C@H]1CC[C@H](CCN2CCN(c3cc(C(F)(F)F)ccc3F)CC2)CC1.Cl,240 °C
7,"Cc1ccc(N2CCN(CC[C@H]3CC[C@H](NC(=O)CC#N)CC3)CC2)c(F)c1 [Example 484, 2-Cyano-N-(4-{2-[4-(2-fluoro-4-methylphenyl)piperazin-1-yl]ethyl}cyclohexyl)acetamide]",197 °C
8,CC(=O)CN1CCC(CCN2CC=C(c3cccc(C#N)c3)CC2)CC1,94 °C
9,"N#CCC(=O)N[C@H]1CC[C@H](CCN2CCN(c3cc(F)cc(F)c3)CC2)CC1 [Example 159, 2-Cyano-N-(4-{2-[4-(3,5-difluorophenyl)piperazin-1-yl]ethyl}cyclohexyl)acetamide trans/cis 95/5]",196 °C
10,"CS(=O)(=O)CC(=O)N[C@H]1CC[C@H](CCN2CCN(c3ccc(Cl)cc3)CC2)CC1 [Example 427, N-(4-{2-[4-(4-Chlorophenyl)-piperazin-1-yl]ethyl}cyclohexyl)-2-methanesulfonylacetamide]",214 °C
11,"Cc1ccc(N2CCN(CC[C@H]3CC[C@H](NC(=O)CC(F)(F)F)CC3)CC2)cc1C [Example 509, N-(4-{2-[4-(3,4-Dimethylphenyl)piperazin-1-yl]ethyl}cyclohexyl)-3,3,3-trifluoropropanamide]",199 °C
12,COCCCC(=O)N[C@H]1CC[C@H](CCN2CC=C(c3cc(C(F)(F)F)ccc3F)CC2)CC1,164 °C
13,"N#CCCCC(=O)N[C@H]1CC[C@H](CCN2CCN(c3cccc(C(F)(F)F)c3F)CC2)CC1 [Example 172, 4-Cyano-N-(4-{2-[4-(2-fluoro-3-trifluoromethylphenyl)piperazin-1-yl]ethyl}cyclohexyl)butanamide]",158 to 162 °C
14,"N#CCC(=O)N[C@H]1CC[C@H](CCN2CCN(c3cc(C#N)ccc3Cl)CC2)CC1 [Example 599, N-(4-{2-[4-(2-Chloro-5-cyanophenyl)piperazin-1-yl]ethyl}cyclohexyl)-2-cyanoacetamide]",225 °C
15,"O=C(CC(F)(F)F)N[C@H]1CC[C@H](CCN2CCN(c3ccccc3F)CC2)CC1 [Example 87, 3,3,3-Trifluoro-N-(4-{2-[4-(2-fluorophenyl)piperazin-1-yl]ethyl}cyclohexyl)propanamide]",207 °C
16,CC(=O)CN1CCC(CCN2CCN(c3cccc(Cl)c3C#N)CC2)CC1.Cl.Cl,284 °C
17,"COc1ccc(C)cc1N1CCN(CC[C@H]2CC[C@H](NC(=O)CC#N)CC2)CC1 [Example 195, 2-Cyano-N-(4-{2-[4-(2-methoxy-5-methylphenyl)piperazin-1-yl]ethyl}cyclohexyl)acetamide]",178 °C
18,"N#CCC(=O)N[C@H]1CC[C@H](CCN2CCN(c3ccc(Cl)c(Cl)c3F)CC2)CC1 [Example 519, 2-Cyano-N-(4-{2-[4-(3,4-dichloro-2-fluorophenyl)piperazin-1-yl]ethyl}cyclohexyl)acetamide]",237 °C
19,O=C(N[C@H]1CC[C@H](CCN2CCN(c3cc(C(F)(F)F)ccc3F)CC2)CC1)C1=CCCC1 [Example 705],199 °C
20,"CC(C)(C)c1cccc(N2CCN(CC[C@H]3CC[C@H](NC(=O)CC#N)CC3)CC2)c1 [Example 169, N-(4-{2-[4-(3-tert-Butylphenyl)piperazin-1-yl]ethyl}cyclohexyl)-2-cyanoacetamide]",150 °C
21,"CC(=O)CN1CCC(CCN2CCN(c3cccc(C(C)O)c3)CC2)CC1 (stereo not drawn) [Example 606, 1-[4-(2-{4-[3-(1-Hydroxyethyl)phenyl]piperazin-1-yl}ethyl)piperidin-1-yl]propan-2-one]",97 °C
22,"CC(=O)CN1CCC(CCN2CCN(c3ccc4c(c3)OCCO4)CC2)CC1 [Example 711, 1-(4-{2-[4-(2,3-Dihydrobenzo[1,4]dioxin-6-yl)piperazin-1-yl]ethyl}piperidin-1-yl)propan-2-one]",126 °C
